This note sets out measurements from paper PMC12064818, “A general assay platform to study protein pharmacology using ligand-dependent structural dynamics” (Nature Communications, 2025).

The experiment deals with T1, FLuc-C-HiBiT (Photinus pyralis, UniProt P08659).
T1 construct: firefly luciferase with C-terminal HiBiT tag, E. coli expressed
T1 sequence (P08659 whole entry, looked up): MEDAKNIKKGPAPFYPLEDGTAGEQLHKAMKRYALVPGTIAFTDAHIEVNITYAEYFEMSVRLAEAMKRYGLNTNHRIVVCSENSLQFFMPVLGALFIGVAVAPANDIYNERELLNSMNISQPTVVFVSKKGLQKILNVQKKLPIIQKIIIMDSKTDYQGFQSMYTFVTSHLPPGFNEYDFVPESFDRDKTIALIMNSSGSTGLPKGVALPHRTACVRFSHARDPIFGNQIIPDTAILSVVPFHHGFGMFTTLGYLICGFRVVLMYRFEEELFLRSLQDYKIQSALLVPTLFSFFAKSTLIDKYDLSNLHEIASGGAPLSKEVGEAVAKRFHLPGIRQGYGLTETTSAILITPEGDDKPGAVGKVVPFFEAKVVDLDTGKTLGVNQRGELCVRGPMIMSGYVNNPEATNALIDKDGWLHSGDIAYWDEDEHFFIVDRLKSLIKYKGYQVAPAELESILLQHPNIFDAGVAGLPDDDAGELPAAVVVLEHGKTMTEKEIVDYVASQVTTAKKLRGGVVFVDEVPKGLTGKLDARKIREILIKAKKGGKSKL
In words: biochemical. As to conditions: enzyme activity, 10 uM ATP; read-out: IC50 or SDR50 (mM) / FLuc E.
In the case of `COc1ccc(-c2nc3ccccc3s2)cc1NC(=O)c1ccc(F)cc1` [NCGC00103032-01], the IC50 was over 0.03 mM.
As to `COCCOc1nc(N)c2[nH]c(=O)n(Cc3ccc(C(=O)O)cc3)c2n1` [NCGC00480851-01], the IC50 was over 0.03 mM.
Turning to `OC(c1nc(Nc2ccc(Oc3ccccc3)cc2)n[nH]1)C1CC1` (stereo not drawn) [NCGC00411906-01], the IC50 is 0.0202 mM.
The figure for `O=C(NC1CCCN(c2cc(-c3ccc(Cl)cc3)n[nH]2)C1)c1ccc2ncccc2c1` (stereo not drawn) [NCGC00437446-01] is 0.00495 mM.
`CCN(c1ncnc2c1cnn2-c1cccc(Cl)c1)C1CCCCC1` [NCGC00139112-01]: the IC50 was 0.00556 mM.
Regarding `O=C(O)c1ccc(-c2noc(-c3cccc(Cl)c3)n2)cc1` [NCGC00168100-03], the IC50 was found to be 0.007 mM.
For the compound `Cc1ccccc1-c1cccc(COc2cnc3c(ccn3CC(=O)O)c2)c1` [NCGC00418175-01], the IC50 was 0.018 mM.
The figure for `CN(C)c1ccc(-c2noc([C@@H]3CCCN3Cc3cnc4ccccc4c3)n2)cn1` [NCGC00394599-01] is over 0.03 mM.
The figure for `Cc1ccc(-c2noc(-c3ccccc3Br)n2)cc1` [NCGC00079622-01] is 0.00157 mM.
Consider `C[C@@H]1C(=O)O[C@H]2[C@H]1CC[C@@]1(C)Cc3sc(Nc4cccnc4)nc3[C@@H](C)[C@H]21` [NCGC00421621-01], for which the IC50 was determined as 0.000453 mM.
In the case of `CCc1nc(-c2ccc(OC3CCN(C(=O)C4CC4)C3)cc2)no1` (stereo not drawn) [NCGC00440987-01], the IC50 came out at 0.0124 mM.
Consider `COC(=O)[C@@H]1C[C@H](NC(=O)c2ccc(Oc3ccccc3)cc2)CN1C` [NCGC00433761-01], for which the IC50 was 0.0157 mM.
The value for `O=C(c1n[nH]cc1Cl)N1CCOC(Cc2cccc(C(F)(F)F)c2)C1` (stereo not drawn) [NCGC00431816-01] was over 0.03 mM; that for `CN1c2cc(C(=O)Nc3ccccc3)ccc2C(=O)N2CCCCC21` (stereo not drawn) [NCGC00452396-01] was 0.0124 mM.
Turning to `CN1c2cc(C(=O)Nc3ccc4c(c3)OCCO4)ccc2C(=O)N2CCCCC21` (stereo not drawn) [NCGC00452420-01], the IC50 came to 0.00989 mM.
As to `CC1CCN(c2ncnc3c2cnn3-c2ccc(F)cc2)CC1` [NCGC00139049-01], the IC50 is 0.0111 mM.
For the compound `CC(=O)NC1CCN(Cc2cn(-c3ccc(C)cc3)nc2-c2cccc(C)c2)C1` (stereo not drawn) [NCGC00437791-01], the IC50 is 0.014 mM.
With `COc1ccc(C2=NOC3(CCN([S+](=O)([O-])c4cccs4)C3)C2)cc1` (stereo not drawn) [NCGC00476604-01], the IC50 was over 0.03 mM.
The value for `O=C(COc1ccc(Cl)cc1)Nc1ccc(O)c(-c2nc3ccccc3s2)c1` [NCGC00135616-01] was over 0.03 mM; that for `NC(=O)C1CCN(c2ncnc3c2cnn3-c2ccccc2)CC1` [NCGC00141852-02] was over 0.03 mM; that for `Cc1ccc2c(c1)sc1nc(-c3cc4ccccc4oc3=O)cn12` [NCGC00098323-01] was 0.000248 mM.
Regarding `O=C1CCC2(C(=O)NCCc3ccccc3)CCCC=C2N1c1ccccc1` (stereo not drawn) [NCGC00472135-01], the IC50 came to 0.0157 mM.
`CCOC(=O)N1CCc2c(sc(NCc3sccc3C)c2C(=O)Nc2ccc(OC)cc2OC)C1` [NCGC00140803-01]: the IC50 amounted to 0.00495 mM.
Take `Cc1cn2nc(C(=O)Nc3ccc(C(=O)NCCc4cccs4)cc3)cc2c(=O)[nH]1` [NCGC00453964-01]: the IC50 was determined as 0.00881 mM.
With `COCCN1CCC2(C1)CN(C)c1ccc(C(=O)Nc3ccccc3)cc12` (stereo not drawn) [NCGC00419345-01], the IC50 was determined as 0.00114 mM.
As to `CCc1cccc(NC(=O)c2cc(-c3ccccc3)n[nH]2)c1` [NCGC00125661-01], the IC50 came to 0.00279 mM.
As to `CN1Cc2ccc(C(=O)NCCOc3ccccc3)cc2OCC1=O` [NCGC00418504-01], the IC50 is 0.0202 mM.
Take `Cc1csc(NC(=O)c2nc3c(o2)CCN(Cc2cccc(F)c2)CC3)n1` [NCGC00413280-01]: the IC50 was determined as 0.0143 mM.
Consider `O=C(O)COCC(=O)N[C@H]1CCN2C(=O)c3cc(/C=C/c4ccccc4)ccc3NC(=O)[C@H]12` [NCGC00395144-01], for which the IC50 turned out to be 0.0124 mM.
The figure for `CCCCNc1nc(N)c2[nH]c(=O)n(Cc3ccc(OCCN(C)C)nc3)c2n1` [NCGC00387452-01] is over 0.03 mM.
For `CCN(CC)C(=O)N1CCOC(c2ccc3cc(OC)ccc3c2)C1` (stereo not drawn) [NCGC00431059-01], the IC50 was 0.00556 mM.
The value for `Cc1ccc(CNC(=O)Nc2cccc(-c3ccc(N4CCOCC4)nn3)c2)cc1` [NCGC00427596-01] was 0.00279 mM; that for `COc1ccc(-c2cccc(COc3cnc4c(ccn4CC(=O)O)c3)c2)c(C)c1` [NCGC00418229-01] was over 0.03 mM; that for `CCOC1CCCN(c2ncnc3c2cnn3-c2ccccc2)C1` (stereo not drawn) [NCGC00616559-01] was 0.00989 mM.
For `Brc1ccccc1-n1ncc2c1ncn1nc(Cc3ccccc3)nc21` [NCGC00115124-01], the IC50 was over 0.03 mM.
The value for `COc1ccc(-c2nc(C)c(CCNC(=O)c3c(F)cccc3F)s2)cc1` [NCGC00135823-01] was over 0.03 mM; that for `O=c1oc2ccc(F)cc2cc1-c1nc(-c2cccs2)no1` [NCGC00123380-01] was 0.00313 mM.
The figure for `O=C([C@@H]1C[C@@H](O)[C@H](O)[C@@H]2NC(=S)N(c3ccc(OC(F)(F)F)cc3)[C@@H]21)N1CCCCC1` [NCGC00392138-01] is over 0.03 mM; for `CC1(NC(=O)C2CC2)CN(Cc2nc(-c3ccccc3OCc3ccccc3)cs2)C1` [NCGC00410379-01] it is 0.0161 mM; for `Fc1ccc(Nc2nc(-c3ccccc3)no2)cc1` [NCGC00422295-01] it is 0.00624 mM.
Regarding `Cc1ccc(-n2nc(C)c([C@@H]3C=C[C@@H](NC(=O)NCc4ccccc4)C3)c2C)cc1Cl` [NCGC00399961-01], the IC50 is 0.018 mM.
Turning to `C[S+](=O)([O-])CCn1ncc2cc(OCc3cccc(-c4ccccc4)c3)ccc21` [NCGC00418095-01], the IC50 is 0.0064 mM.
As to `Cc1c(NC(=O)C(C)(C)C)cccc1-c1nc2ccccc2s1` [NCGC00118970-01], the IC50 was 0.00556 mM.
As for `O=C(Nc1ccccc1-c1nc2ccccc2s1)c1cc(Cl)cc(Cl)c1` [NCGC00135642-01], the IC50 was over 0.03 mM.
For the compound `C[S+](=O)([O-])CCn1ncc2cc(OCc3cccc(-c4ccc(F)cc4)c3)ccc21` [NCGC00418040-01], the IC50 stood at 0.0161 mM.
In the case of `CC(=O)NCCNC(=O)c1ccc2c(=O)n(CCc3ccccc3)c(=O)[nH]c2c1` [NCGC00104963-01], the IC50 was 0.00556 mM.
The value for `CCOc1ccccc1C(=O)Nc1nc2c(s1)CC(C)CC2` (stereo not drawn) [NCGC00119172-01] was 0.00442 mM; that for `COC(=O)c1c(-c2cccs2)csc1NC(=O)c1ccc(Br)cc1` [NCGC00118335-01] was 0.0111 mM; that for `Cc1cc2c(c(-c3nc4ccccc4s3)c1)OC(CNC(=O)c1occc1C)C2` (stereo not drawn) [NCGC00240406-01] was 0.0124 mM.
In the case of `CN(Cc1cnn(C)c1)C(=O)c1csc2nc(-c3ccc(C(F)(F)F)cc3)cn12` [NCGC00425000-01], the IC50 came to 0.00442 mM.
For `CCCN1C(=O)c2ccc(-c3nc4ccccc4s3)cc2C1=O` [NCGC00597617-01], the IC50 came out at 0.00197 mM.
For `CCNC(=O)C1C(c2cccc(NC(=O)c3ccc(C)cc3)c2)OC(=O)N1Cc1ccc(F)cc1` (stereo not drawn) [NCGC00473984-01], the IC50 amounted to 0.00176 mM.
The figure for `Brc1ccc(-c2nc(-c3ccccn3)no2)o1` [NCGC00079657-01] is 0.00124 mM; for `CCc1ccc(NC(=O)c2cc3ccccn3n2)cc1` [NCGC00127901-01] it is 0.00176 mM; for `O=C(Nc1nc2ccccc2s1)c1ccc2c(c1)OCCN(CCC(F)(F)F)C2` [NCGC00418456-01] it is 0.0202 mM.
`CCCCN(C)[S+](=O)([O-])c1ccc(C(=O)Nc2ccc(-c3nc4ccc(C)cc4s3)cc2)cc1` [NCGC00134689-02]: the IC50 was over 0.03 mM.
With `Nc1nc2c(ncn2COCCO)c(=O)[nH]1` [NCGC00015061-13], the IC50 is over 0.03 mM.
The value for `COc1ccccc1OC1(C(=O)O)CCN(c2ncnc3[nH]cnc23)CC1` [NCGC00436727-01] was over 0.03 mM.
For the compound `O=[S+]([O-])(c1cccc(C(F)(F)F)c1)n1c(/C=C/c2ccccc2)nc2ccccc21` [NCGC00139418-01], the IC50 amounted to 0.000556 mM.
Turning to `OCC1CCN(c2ncnc3c2cnn3-c2ccccc2)CC1` [NCGC00608116-01], the IC50 worked out at 0.0124 mM.
Regarding `C=Cc1ccc(-c2nc3ccc(OC)cc3s2)cc1` [NCGC00167606-01], the IC50 amounted to 0.000442 mM.
Regarding `COc1ccc(-c2noc(Nc3ccc(C)c(C)c3)n2)cc1` [NCGC00422330-01], the IC50 amounted to 0.00989 mM.
As for `COc1ccc(CC(=O)Nc2ccc(-c3nc4ccccc4s3)cc2Cl)cc1OC` [NCGC00137804-01], the IC50 was over 0.03 mM.
The figure for `C[C@H](C(=O)NCCN1CCOCC1)C1CC[C@@]2(C)Cc3sc(-c4ccccc4)nc3[C@@H](C)[C@@H]2[C@H]1O` (stereo partly drawn) [NCGC00421022-01] is 0.000989 mM; for `N#Cc1c(NC(=O)c2cccc3ccccc23)sc2c1CCCC2` [NCGC00242227-03] it is over 0.03 mM; for `Nc1c(C(=O)Nc2ccc(C(=O)O)cc2)sc2nc3c(cc12)CCCC3` [NCGC00100367-01] it is 0.000176 mM.
As for `CCSc1ccc(C(=O)Nc2ccc(-c3nc4ccc(C)cc4s3)cc2)cc1` [NCGC00134697-01], the IC50 was over 0.03 mM.
Regarding `Cc1ccc(-n2nc(C)c([C@H]3C=C[C@@H](OC(=O)Nc4cccc(C(F)(F)F)c4)C3)c2C)cc1Cl` [NCGC00401611-01], the IC50 is over 0.03 mM.
With `Nc1nc2c(nc(O)n2[C@H]2C[C@H](O)[C@@H](CO)O2)c(=O)[nH]1` [NCGC00475978-01], the IC50 is over 0.03 mM.
The figure for `CC(Cc1cnccn1)Nc1ccc(-c2nc(-c3cccc(Cl)c3)no2)cn1` (stereo not drawn) [NCGC00425352-01] is 0.0111 mM.
Regarding `Fc1ccccc1Nc1nc(-c2ccccc2)no1` [NCGC00422293-01], the IC50 is 0.0007 mM.
In the case of `CCCc1nn2cc(-c3ccc(C)c(C)c3)nc2s1` [NCGC00117454-01], the IC50 amounted to 0.000624 mM.
With `O=C(CCC[S+](=O)([O-])c1ccc(Cl)cc1)Nc1ccc(O)c(-c2nc3ccccc3s2)c1` [NCGC00347270-01], the IC50 was over 0.03 mM.
For `COCC(=O)N1CCc2nc(C)nc(-c3ccc(OC)cc3)c2C1` [NCGC00480441-01], the IC50 was over 0.03 mM.
Take `C[C@@H]1C(=O)O[C@H]2[C@H]1CC[C@@]1(C)Cc3sc(NC(=O)c4c(F)cccc4F)nc3[C@@H](C)[C@H]21` [NCGC00421654-01]: the IC50 was determined as 0.00989 mM.
